Reference: PMC6990405, “Synthesis and Structure–Activity relationship of 1-(5-isoquinolinesulfonyl)piperazine analogues as inhibitors of Mycobacterium tuberculosis IMPDH” (European Journal of Medicinal Chemistry, 2019)
Values after ≈ are worked out from the molar mass of the structure shown.

Assays:
[1] = test system: M. tuberculosis SRMV2.6 (IMPDH Tyr487Cys); format: cell-based, Mycobacterium tuberculosis
[2] = test system: M. tuberculosis guaB2 cKD mutant; format: cell-based; conditions: increase in potency against guaB2 cKD mutant upon guaB2 silencing

CC1CN(S(=O)(=O)c2cccc3cnccc23)CCN1C(=O)C1CCCCC1 (centres unmarked) [Compound 3, Cyclohexyl[4-(isoquinoline-5-sulfonyl)-2-methylpiperazin-1-yl]methanone]
MIC90 against SRMV2.6 [1]: 100 µM (≈ 40.2 µg/mL)

O=C(Nc1ccc(Cl)c([N+](=O)[O-])c1)N1CCN(S(=O)(=O)c2cccc3cnccc23)CC1 [Compound 35, N-(4-chloro-3-nitrophenyl)-4-(isoquinolin-5-ylsulfonyl)piperazine-1-carboxamide]
MIC90 against SRMV2.6 [1]: >100 µM

O=C(Cc1ccc([N+](=O)[O-])cc1)N1CCN(S(=O)(=O)c2cccc3cnccc23)CC1 [Compound 30, 1-(4-(isoquinolin-5-ylsulfonyl)piperazin-1-yl)-2-(4-nitrophenyl)ethan-1-one]
MIC90 against SRMV2.6 [1]: >250 µM

CC(C)(C)C(=O)N1CCN(S(=O)(=O)c2cccc3cnccc23)CC1 [Compound 11, 1-[4-(isoquinoline-5-sulfonyl)piperazin-1-yl]-2,2-dimethylpropan-1-one]
MIC90 against SRMV2.6 [1]: 100 µM (≈ 36.1 µg/mL)

N#Cc1cccc(C(=O)N2CCN(S(=O)(=O)c3cccc4cnccc34)CC2)c1 [Compound 16, 3-[4-(isoquinoline-5-sulfonyl)piperazine-1-carbonyl]benzonitrile]
MIC90 against SRMV2.6 [1]: 50 µM (≈ 20.3 µg/mL)

COc1cccc(CNC(=O)N2CCN(S(=O)(=O)c3cccc4cnccc34)CC2)c1 [Compound 47, 4-(isoquinolin-5-ylsulfonyl)-N-(3-methoxybenzyl)piperazine-1-carboxamide]
Hyper-sensitivity to guaB2 cKD [2]: 8-fold

Cc1cccc(CC(=O)N2CCN(S(=O)(=O)c3cccc4cnccc34)CC2)c1 [Compound 28, 1-(4-(isoquinolin-5-ylsulfonyl)piperazin-1-yl)-2-(m-tolyl)ethan-1-one]
MIC90 against SRMV2.6 [1]: >250 µM

O=C(Nc1cccc(Cl)c1Cl)N1CCN(S(=O)(=O)c2cccc3cnccc23)CC1 [Compound 37, N-(2,3-dichlorophenyl)-4-(isoquinolin-5-ylsulfonyl)piperazine-1-carboxamide]
MIC90 against SRMV2.6 [1]: >250 µM

O=C(NCCNS(=O)(=O)c1cccc2cnccc12)c1cc([N+](=O)[O-])cc([N+](=O)[O-])c1 [Compound 21, N-{2-[(isoquinoline-5-sulfonyl)amino]ethyl}-3,5-dinitrobenzamide]
MIC90 against SRMV2.6 [1]: 3.9 µM (≈ 1.74 µg/mL) | fold more active against SRMV2.6 than wild-type M. tuberculosis [1]: 4 fold

O=S(=O)(c1cccc2cnccc12)N1CCN(C(=S)Nc2ccc3c(c2)OCO3)CC1 [Compound 42, N-(benzo[d][1,3]dioxol-5-yl)-4-(isoquinolin-5-ylsulfonyl)piperazine-1-carbothioamide]
MIC90 against SRMV2.6 [1]: >100 µM

O=C(NCCNS(=O)(=O)c1cccc2cnccc12)C1CCCCC1 [Compound 2, N-{2-[(isoquinoline-5-sulfonyl)amino]ethyl}cyclohexanecarboxamide]
MIC90 against SRMV2.6 [1]: >250 µM

O=C(C1CCCCC1)N1CCN(S(=O)(=O)c2ccc3ccccc3c2)CC1 [Compound 8, Cyclohexyl[4-(naphthalene-2-sulfonyl)piperazin-1-yl]methanone]
MIC90 against SRMV2.6 [1]: >100 µM

COc1cccc(CC(=O)N2CCN(S(=O)(=O)c3cccc4cnccc34)CC2)c1 [Compound 26, 1-[4-(isoquinoline-5-sulfonyl)piperazin-1-yl]-2-(3-methoxyphenyl)ethan-1-one]
MIC90 against SRMV2.6 [1]: >250 µM

N#Cc1cccc(NC(=O)N2CCN(S(=O)(=O)c3cccc4cnccc34)CC2)c1 [Compound 31, N-(3-cyanophenyl)-4-(isoquinolin-5-ylsulfonyl)piperazine-1-carboxamide]
MIC90 against SRMV2.6 [1]: 31.2 µM (≈ 13.2 µg/mL)

O=C(CC1CCC2(CC1)OCCO2)N1CCN(S(=O)(=O)c2cccc3cnccc23)CC1 [Compound 23, 2-(1,4-dioxaspiro[4.5]decan-8-yl)-1-[4-(isoquinoline-5-sulfonyl)piperazin-1-yl]ethan-1-one]
MIC90 against SRMV2.6 [1]: >250 µM

COc1cc(C(=O)N2CCN(S(=O)(=O)c3cccc4cnccc34)CC2)cc(OC)c1OC [Compound 20, [4-(isoquinoline-5-sulfonyl)piperazin-1-yl](3,4,5-trimethoxyphenyl)methanone]
MIC90 against SRMV2.6 [1]: >125 µM

O=C(C1CCCCC1)N1CCC(NS(=O)(=O)c2cccc3cnccc23)CC1 [Compound 5, N-[1-(cyclohexanecarbonyl)piperidin-4-yl]isoquinoline-5-sulfonamide]
MIC90 against SRMV2.6 [1]: >100 µM

O=C(Nc1ccc2c(c1)OCO2)N1CCN(S(=O)(=O)c2cccc3cnccc23)CC1 [Compound 41, N-(benzo[d][1,3]dioxol-5-yl)-4-(isoquinolin-5-ylsulfonyl)piperazine-1-carboxamide]
MIC90 against SRMV2.6 [1]: >100 µM

O=C(Nc1ccc(Cl)cc1)N1CCN(S(=O)(=O)c2cccc3cnccc23)CC1 [Compound 33, N-(4-chlorophenyl)-4-(isoquinolin-5-ylsulfonyl)piperazine-1-carboxamide]
MIC90 against SRMV2.6 [1]: >250 µM

O=C(Nc1cccc(C(F)(F)F)c1)N1CCN(S(=O)(=O)c2cccc3cnccc23)CC1 [Compound 32, 4-(isoquinolin-5-ylsulfonyl)-N-(3-(trifluoromethyl)phenyl)piperazine-1-carboxamide]
MIC90 against SRMV2.6 [1]: 125 µM (≈ 58.1 µg/mL)

O=C(C1CCCCC1)N1CCN(S(=O)(=O)c2cccc3ccccc23)CC1 [Compound 7, Cyclohexyl[4-(naphthalene-1-sulfonyl)piperazin-1-yl]methanone]
MIC90 against SRMV2.6 [1]: >100 µM

Cc1ccc(NC(=O)N2CCN(S(=O)(=O)c3cccc4cnccc34)CC2)c([N+](=O)[O-])c1 [Compound 39, 4-(isoquinolin-5-ylsulfonyl)-N-(4-methyl-2-nitrophenyl)piperazine-1-carboxamide]
MIC90 against SRMV2.6 [1]: 25 µM (≈ 11.4 µg/mL)

Cc1cc2c(S(=O)(=O)N3CCN(C(=O)C4CCCCC4)CC3)cccc2cn1 [Compound 6, Cyclohexyl[4-(3-methylisoquinoline-5-sulfonyl)piperazin-1-yl]methanone]
MIC90 against SRMV2.6 [1]: >100 µM

CC1(C(=O)N2CCN(S(=O)(=O)c3cccc4cnccc34)CC2)CCCCC1 [Compound 12, [4-(isoquinoline-5-sulfonyl)piperazin-1-yl](1-methylcyclohexyl)methanone]
MIC90 against SRMV2.6 [1]: >250 µM

O=C(Nc1ccc2c(c1)OCO2)N1CCC(NS(=O)(=O)c2cccc3cnccc23)CC1 [Compound 43, 4-[(isoquinoline-5-sulfonyl)amino]-N-(2H-1,3-benzodioxol-5-yl)piperidine-1-carboxamide]
MIC90 against SRMV2.6 [1]: >100 µM

O=C(Nc1ccc(F)c(Cl)c1)N1CCN(S(=O)(=O)c2cccc3cnccc23)CC1 [Compound 36, N-(3-chloro-4-fluorophenyl)-4-(isoquinolin-5-ylsulfonyl)piperazine-1-carboxamide]
MIC90 against SRMV2.6 [1]: 62.5 µM (≈ 28.1 µg/mL)

Cc1ccc(NC(=O)N2CCN(S(=O)(=O)c3cccc4cnccc34)CC2)cc1Cl [Compound 38, N-(3-chloro-4-methylphenyl)-4-(isoquinolin-5-ylsulfonyl)piperazine-1-carboxamide]
MIC90 against SRMV2.6 [1]: 100 µM (≈ 44.5 µg/mL)

COc1ccc(CC(=O)N2CCN(S(=O)(=O)c3cccc4cnccc34)CC2)c(OC)c1 [Compound 27, 1-[4-(isoquinoline-5-sulfonyl)piperazin-1-yl]-2-(2,4-dimethoxyphenyl)ethan-1-one]
MIC90 against SRMV2.6 [1]: >250 µM

O=C(c1cc([N+](=O)[O-])cc([N+](=O)[O-])c1)N1CCN(S(=O)(=O)c2cccc3cnccc23)CC1 [Compound 19, [4-(isoquinoline-5-sulfonyl)piperazin-1-yl](3,5-dinitrophenyl)methanone]
MIC90 against SRMV2.6 [1]: 100 µM (≈ 47.1 µg/mL)

Cc1cccc(Cl)c1NC(=O)N1CCN(S(=O)(=O)c2cccc3cnccc23)CC1 [Compound 40, N-(2-chloro-6-methylphenyl)-4-(isoquinolin-5-ylsulfonyl)piperazine-1-carboxamide]
MIC90 against SRMV2.6 [1]: >250 µM

O=C(Nc1ccc(Cl)c(C(F)(F)F)c1)N1CCN(S(=O)(=O)c2cccc3cnccc23)CC1 [Compound 34, N-(4-chloro-3-(trifluoromethyl)phenyl)-4-(isoquinolin-5-ylsulfonyl)piperazine-1-carboxamide]
MIC90 against SRMV2.6 [1]: 50 µM (≈ 24.9 µg/mL)

O=C(c1ccccc1)N1CCN(S(=O)(=O)c2cccc3cnccc23)CC1 [Compound 15, [4-(isoquinoline-5-sulfonyl)piperazin-1-yl](phenyl)methanone]
MIC90 against SRMV2.6 [1]: >100 µM

N#Cc1ccc(C(=O)N2CCN(S(=O)(=O)c3cccc4cnccc34)CC2)cc1 [Compound 17, 4-[4-(isoquinoline-5-sulfonyl)piperazine-1-carbonyl]benzonitrile]
MIC90 against SRMV2.6 [1]: 100 µM (≈ 40.6 µg/mL)

O=C(NCCNS(=O)(=O)c1cccc2cnccc12)C1CC1 [Compound 9, N-{2-[(isoquinoline-5-sulfonyl)amino]ethyl}cyclopropanecarboxamide]
MIC90 against SRMV2.6 [1]: 100 µM (≈ 31.9 µg/mL)

O=C(Cc1cccc(O)c1)N1CCN(S(=O)(=O)c2cccc3cnccc23)CC1 [Compound 25, 2-(3-hydroxyphenyl)-1-[4-(isoquinoline-5-sulfonyl)piperazin-1-yl]ethan-1-one]
MIC90 against SRMV2.6 [1]: >250 µM

O=C(NC1CCN(S(=O)(=O)c2cccc3cnccc23)CC1)C1CCCCC1 [Compound 4, N-[1-(isoquinoline-5-sulfonyl)piperidin-4-yl]cyclohexanecarboxamide]
MIC90 against SRMV2.6 [1]: >100 µM

N#Cc1cccc(CC(=O)N2CCN(S(=O)(=O)c3cccc4cnccc34)CC2)c1 [Compound 24, 3-{2-[4-(isoquinoline-5-sulfonyl)piperazin-1-yl]-2-oxoethyl}benzonitrile]
MIC90 against SRMV2.6 [1]: >250 µM

O=C(NCCNS(=O)(=O)c1cccc2cnccc12)C1CCC1 [Compound 10, N-{2-[(isoquinoline-5-sulfonyl)amino]ethyl}cyclobutanecarboxamide]
MIC90 against SRMV2.6 [1]: 100 µM (≈ 33.3 µg/mL)

O=C(Cc1ccc(F)cc1)N1CCN(S(=O)(=O)c2cccc3cnccc23)CC1 [Compound 29, 2-(4-fluorophenyl)-1-(4-(isoquinolin-5-ylsulfonyl)piperazin-1-yl)ethan-1-one]
MIC90 against SRMV2.6 [1]: >100 µM

O=C(OCc1ccccc1)N1CCN(S(=O)(=O)c2cccc3cnccc23)CC1 [Compound 49, Benzyl 4-(isoquinolin-5-ylsulfonyl)piperazine-1-carboxylate]
MIC90 against SRMV2.6 [1]: 100 µM (≈ 41.1 µg/mL)
